Experimental data taken from US7820675B2, “Benzofuran compounds” (Biovitrum AB, priority 2003, dated 2010).
pKi: −log10 of the molar value. Structures can show the parent of a compound that is named as a salt.

biological target: T1, human 5-HT6 receptor (Homo sapiens, UniProt P50406); test: 5-HT6 binding assay ([3H]-LSD competition, SPA, membranes of transfected HEK293 cells); settings: competitive binding, [3H]-LSD radioligand, Ki calculated from IC50 (Cheng)
T1 construct: expressed in transfected cells; host or cells: HEK293
T1 sequence (P50406 whole entry): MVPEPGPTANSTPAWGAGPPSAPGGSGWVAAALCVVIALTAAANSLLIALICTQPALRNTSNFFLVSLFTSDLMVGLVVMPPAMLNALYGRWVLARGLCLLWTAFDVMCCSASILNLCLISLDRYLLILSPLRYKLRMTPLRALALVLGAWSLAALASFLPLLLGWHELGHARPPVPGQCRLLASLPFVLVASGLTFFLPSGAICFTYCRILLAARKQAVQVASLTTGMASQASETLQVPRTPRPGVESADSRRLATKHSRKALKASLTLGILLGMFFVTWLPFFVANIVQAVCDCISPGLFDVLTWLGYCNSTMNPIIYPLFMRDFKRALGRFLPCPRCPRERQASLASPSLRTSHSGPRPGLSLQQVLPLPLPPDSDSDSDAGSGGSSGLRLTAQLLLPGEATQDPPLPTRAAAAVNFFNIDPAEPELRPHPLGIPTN

pKi	Structure (SMILES)
8.15	COc1ccc(C)cc1S(=O)(=O)Nc1cc(O[C@@H]2CCNC[C@H]2F)c2occc2c1 (relative stereo) [Example 85, N-(7-{[trans-3-Fluoropiperidin-4-yl]oxy}-1-benzofuran-5-yl)-2-methoxy-5-methylbenzenesulfonamide hydrochloride]
7.25	O=S(=O)(Nc1cc(O[C@@H]2CCNC[C@H]2F)c2occc2c1)c1cc(F)ccc1Cl (relative stereo) [Example 91, 2-Chloro-5-fluoro-N-(7-{[trans-3-fluoropiperidin-4-yl]oxy}-1-benzofuran-5-yl)benzenesulfonamide hydrochloride]
7.70	O=S(=O)(Nc1cccc2cc(C3=CN4CCC3CC4)oc12)c1ccccc1 [Example 36, N-[2-(1-Azabicyclo[2.2.2]oct-2-en-3-yl)-1-benzofuran-7-yl]benzenesulfonamide hydrochloride]
8.28	O=S(=O)(Nc1cc(O[C@@H]2CCNC[C@H]2F)c2occc2c1)c1ccccc1C(F)(F)F (relative stereo) [Example 87, N-(7-{[trans-3-Fluoropiperidin-4-yl]oxy}-1-benzofuran-5-yl)-2-(trifluoromethyl)benzenesulfonamide hydrochloride]
8.25	COc1ccc(C)cc1NS(=O)(=O)c1cc(CN2CCNC(C)C2)c2occc2c1 (stereo not shown) [Example 92, N-(2-Methoxy-5-methylphenyl)-7-[(3-methylpiperazin-1-yl)methyl]-1-benzofuran-5-sulfonamide hydrochloride]
8.15	O=S(=O)(Nc1cc(O[C@H]2CCNC[C@H]2F)c2occc2c1)c1ccccc1C(F)(F)F (relative stereo) [Example 86, N-(7-{[cis-3-Fluoropiperidin-4-yl]oxy}-1-benzofuran-5-yl)-2-(trifluoromethyl)benzenesulfonamide hydrochloride]
7.85	Cc1cccc(S(=O)(=O)Nc2cc(O[C@@H]3CCNC[C@H]3F)c3occc3c2)c1 (relative stereo) [Example 89, N-(7-{[trans-3-Fluoropiperidin-4-yl]oxy}-1-benzofuran-5-yl)-3-methylbenzenesulfonamide hydrochloride]
7.89	CCN1CCC[C@@H]1CNc1cc(NS(=O)(=O)c2ccccc2C(F)(F)F)cc2ccoc12 [Example 67, N-[7-({[(2R)-1-Ethylpyrrolidin-2-yl]methyl}amino)-1-benzofuran-5-yl]-2-(trifluoromethyl)benzenesulfonamide hydrochloride]
8.12	COc1ccc(C)cc1S(=O)(=O)Nc1cc(O[C@H]2CCNC[C@H]2F)c2occc2c1 (relative stereo) [Example 84, N-(7-{[cis-3-Fluoropiperidin-4-yl]oxy}-1-benzofuran-5-yl)-2-methoxy-5-methylbenzenesulfonamide hydrochloride]
7.76	COc1ccc(C)cc1S(=O)(=O)Nc1cc(CN2CCNCC2)c2occc2c1 [Example 54, 2-Methoxy-5-methyl-N-[7-(piperazin-1-ylmethyl)-1-benzofuran-5-yl]benzenesulfonamide hydrochloride]

same assay, conditions: over three experiments

Hill coefficient	Structure (SMILES)
0.94 (SD 0.09)	NCCc1c[nH]c2ccc(O)cc12 [Example 5-HT, 5-hydroxytryptamine, reference compound]

biological target: T1, human 5-HT6 receptor; test: 5-HT6 intrinsic activity assay (inhibition of 5-HT induced increase in cAMP); format: cell-based; settings: read-out: fKi
Protocol: Briefly, HEK293/5-HT6 cells were seeded in polylysine coated 96-well plates at a density of 25,000/well and grown in DMEM (Dulbecco's Modified Eagle Medium) (without phenol-red) containing 5% dialyzed Foetal Bovine Serum for 48 h at 37° C. in a 5% CO2 incubator. The medium was then aspirated and replaced by 0.1 mL assay medium (Hanks Balance Salt Solution containing 20 mM HEPES, 1.5 mM isobutylmethylxanthine and 1 mg/mL bovine serum albumin). After addition of test substances, 50 μl dissolved in assay medium, the cells were incubated for 10 min at 37° C. in a 5% CO2 incubator. The medium was again aspirated and the cAMP content was determined using a radioactive cAMP kit (Amersham Pharmacia Biotech, BIOTRAK RPA559).
Table 4. Functional in vitro data at the h-5-HT receptor (fKi). Data are expressed as fKi,=IC50/(1+[5HT]/EC50).

pKi	Structure (SMILES)
7.27	O=S(=O)(Nc1cc(-c2cncnc2)c2occc2c1)c1ccccc1 [Example 32, N-(7-Pyrimidin-5-yl-1-benzofuran-5-yl)benzenesulfonamide hydrochloride]
7.18	COc1ccc(C)cc1S(=O)(=O)Nc1cc(-c2ccncc2)c2occc2c1 [Example 28, 2-Methoxy-5-methyl-N-(7-pyridin-4-yl-1-benzofuran-5-yl)benzenesulfonamide]
7.70	COc1ccc(C)cc1S(=O)(=O)Nc1cc(C2=CN3CCC2CC3)c2occc2c1 [Example 33, N-[7-(1-Aza-bicyclo[2.2.2]oct-2-en-3-yl)-benzofuran-5-yl]-2-methoxy-5-methylbenzenesulfonamide hydrochloride]
7.06	Fc1ccc(CNc2cc(N3CCNCC3)c3occc3c2)cc1F [Example 12, N-(3,4-Difluorobenzyl)-7-piperazin-1-yl-1-benzofuran-5-amine hydrochloride]
7.06	CNCCCN(C)c1cc(NS(=O)(=O)c2ccccc2)cc2ccoc12 [Example 1, N-(7-{Methyl[3-(methylamino)propyl]amino}-1-benzofuran-5-yl)benzenesulfonamide hydrochloride]
